Tests used:
[1] = roseburia intestinalis, 12 h, 2 µM
[2] = The drug is tested on Clostridium sporogenes strain: ATCC15579 for biotransformation. The drug concentrations were measured before and after a 12-h incubation by liquid-chromatography-coupled mass spectrometry (LC–MS); conditions: 2 µM
[3] = The drug is tested on Collinsella aerofaciens strain: ATCC25986 for biotransformation. The drug concentrations were measured before and after a 12-h incubation by liquid-chromatography-coupled mass spectrometry (LC–MS); conditions: 2 µM
[4] = enterocloster bolteae, 12 h, 2 µM
[5] = The drug is tested on Clostridium scindens strain: ATCC35704 for biotransformation. The drug concentrations were measured before and after a 12-h incubation by liquid-chromatography-coupled mass spectrometry (LC–MS); conditions: 2 µM
[6] = The drug is tested on Anaerococcus hydrogenalis strain: DSM7454 for biotransformation. The drug concentrations were measured before and after a 12-h incubation by liquid-chromatography-coupled mass spectrometry (LC–MS); conditions: 2 µM
[7] = The drug is tested on Anaerotruncus colihominis strain: DSM17241 for biotransformation. The drug concentrations were measured before and after a 12-h incubation by liquid-chromatography-coupled mass spectrometry (LC–MS); conditions: 2 µM
[8] = The drug is tested on Bacteroides fragilis strain: HMW610 for biotransformation. The drug concentrations were measured before and after a 12-h incubation by liquid-chromatography-coupled mass spectrometry (LC–MS); conditions: 2 µM
[9] = The drug is tested on Clostridium symbiosum strain: ATCC14940 for biotransformation. The drug concentrations were measured before and after a 12-h incubation by liquid-chromatography-coupled mass spectrometry (LC–MS); conditions: 2 µM
[10] = The drug is tested on Bacteroides fragilis strain: HMW615 for biotransformation. The drug concentrations were measured before and after a 12-h incubation by liquid-chromatography-coupled mass spectrometry (LC–MS); conditions: 2 µM
[11] = anaerostipes sp., 12 h, 2 µM
[12] = bifidobacterium adolescentis, 12 h, 2 µM
[13] = The drug is tested on Bacteroides ovatus strain: ATCC8483 for biotransformation. The drug concentrations were measured before and after a 12-h incubation by liquid-chromatography-coupled mass spectrometry (LC–MS); conditions: 2 µM
[14] = bacteroides eggerthii, 12 h, 2 µM
[15] = parabacteroides johnsonii, 12 h, 2 µM
[16] = segatella copri, 12 h, 2 µM
[17] = The drug is tested on Ruminococcus torques strain: ATCC27756 for biotransformation. The drug concentrations were measured before and after a 12-h incubation by liquid-chromatography-coupled mass spectrometry (LC–MS); type: ADME; design: dose 2 uM, timepoint 0 vs 12 hours; conditions: 2 µM
[18] = The drug is tested on Parabacteroides merdae strain: ATCC43184 for biotransformation. The drug concentrations were measured before and after a 12-h incubation by liquid-chromatography-coupled mass spectrometry (LC–MS); conditions: 2 µM
[19] = The drug is tested on Bacteroides finegoldii strain: DSM17565 for biotransformation. The drug concentrations were measured before and after a 12-h incubation by liquid-chromatography-coupled mass spectrometry (LC–MS); conditions: 2 µM
[20] = The drug is tested on Alistipes indistinctus strain: DSM22520 for biotransformation. The drug concentrations were measured before and after a 12-h incubation by liquid-chromatography-coupled mass spectrometry (LC–MS); conditions: 2 µM

Structure (SMILES)	Bacterial Biotransformation [1]	Bacterial Biotransformation [2]	Bacterial Biotransformation [3]	Bacterial Biotransformation [4]	Bacterial Biotransformation [5]	Bacterial Biotransformation [6]	Bacterial Biotransformation [7]	Bacterial Biotransformation [8]	Bacterial Biotransformation [9]	Bacterial Biotransformation [10]	Bacterial Biotransformation [11]	Bacterial Biotransformation [12]	Bacterial Biotransformation [13]	Bacterial Biotransformation [14]	Bacterial Biotransformation [15]	Bacterial Biotransformation [16]	Bacterial Biotransformation [17]	Bacterial Biotransformation [18]	Bacterial Biotransformation [19]	Bacterial Biotransformation [20]
Cc1cc(C)cc(OCC2CNC(=O)O2)c1 (stereo not given) [METAXALONE]	Compound NOT metabolized	Compound NOT metabolized	Compound NOT metabolized	Compound NOT metabolized	Compound NOT metabolized	Compound NOT metabolized	Compound NOT metabolized	Compound metabolized	Compound NOT metabolized	Compound metabolized	Compound NOT metabolized	Compound NOT metabolized	Compound metabolized	–	–	–	–	–	–	–
CC(C)(C)NCC(O)COc1cccc2c1CC(O)C(O)C2 (stereo not given) [NADOLOL]	Compound NOT metabolized	Compound NOT metabolized	Compound NOT metabolized	Compound NOT metabolized	Compound NOT metabolized	Compound NOT metabolized	Compound NOT metabolized	Compound NOT metabolized	Compound NOT metabolized	Compound NOT metabolized	Compound NOT metabolized	Compound NOT metabolized	Compound NOT metabolized	Compound NOT metabolized	Compound NOT metabolized	Compound NOT metabolized	Compound NOT metabolized	Compound NOT metabolized	Compound NOT metabolized	–
C=C[C@H]1CN2CC[C@H]1C[C@H]2[C@H](O)c1ccnc2ccc(OC)cc12.C=C[C@H]1CN2CC[C@H]1C[C@H]2[C@H](O)c1ccnc2ccc(OC)cc12.O.O.O=S(=O)(O)O [QUININE SULFATE]	Compound NOT metabolized	–	Compound NOT metabolized	Compound NOT metabolized	–	Compound NOT metabolized	Compound NOT metabolized	–	–	Compound NOT metabolized	Compound NOT metabolized	Compound NOT metabolized	Compound NOT metabolized	Compound NOT metabolized	Compound NOT metabolized	Compound NOT metabolized	Compound NOT metabolized	–	Compound NOT metabolized	–
CCC(=O)NCC[C@@H]1CCc2ccc3c(c21)CCO3 [RAMELTEON]	–	Compound NOT metabolized	Compound NOT metabolized	Compound NOT metabolized	Compound NOT metabolized	Compound NOT metabolized	Compound NOT metabolized	Compound metabolized	Compound NOT metabolized	–	Compound NOT metabolized	Compound NOT metabolized	–	Compound metabolized	Compound NOT metabolized	Compound metabolized	Compound NOT metabolized	Compound metabolized	Compound NOT metabolized	Compound NOT metabolized
O=C(O[C@H]1C[C@H]2CC[C@@H](C1)[N+]21CCCC1)C(O)(c1ccccc1)c1ccccc1.[Cl-] [TROSPIUM CHLORIDE]	Compound NOT metabolized	Compound NOT metabolized	Compound NOT metabolized	Compound NOT metabolized	Compound NOT metabolized	Compound NOT metabolized	Compound NOT metabolized	–	Compound NOT metabolized	–	Compound NOT metabolized	Compound NOT metabolized	Compound NOT metabolized	Compound NOT metabolized	Compound NOT metabolized	Compound NOT metabolized	Compound NOT metabolized	Compound NOT metabolized	Compound NOT metabolized	–

— ChEMBL document CHEMBL5303573, “Mapping human microbiome drug metabolism by gut bacteria and their genes” (Nature, 2019)
